Common to all, as to assay type: cell-based
Assay [1] has as its target T1, SERT Y107C/C109A (Rattus norvegicus, UniProt P31652, C109A/Y107C).
T1 construct: expressed in transfected cells
Nature of the assay: MTSET inhibition of APP+ uptake in live cells (extracellular pathway cysteine accessibility). On the procedure: (§1) Figure 3 Reactivity of the extracellular cysteine mutants with MTSET. (A) MTSET concentration-dependent inhibition of APP^+ uptake. The cells stably expressing C109A, Y107C/C109C, or S404C/C109A were incubated for 15 min with indicated concentrations of MTSET. The MTSET concentration giving half-maximal inhibition of APP^+ accumulation in the cells was used to calculate inactivation rate constants as plotted in (B). […] Representative images of APP^+ uptake by C109A, Y107C/C109A, or S404C/C109A under various MTSET concentrations were shown in Supplemental Figure S1. […] (B) Rate constants of MTSET inhibition of APP^+ uptake. At the half-maximal concentration, the half-time is the assay time (15 min) and the first-order rate constant is 7.7 × 10^−4 s^−1. This rate constant was divided by the half maximal MTSET concentration from (A) to obtain the pseudo first-order modification rate constant. Error bars represent SEM of three experiments.
(A) MTSET concentration-dependent inhibition of APP^+ uptake. […] After washing to remove excess MTSET and ligands, APP^+ uptake was measured as described under “Materials and Methods”. […] (B) Rate constants of MTSET inhibition of APP^+ uptake. The IC50 values of MTSET inhibition were used to calculate rate constants as described under “Materials and Methods”. Error bars represent SEM from three experiments.
(§2) The cells stably expressing Y107C/C109A or S404C/C109A were preincubated with indicated ligands and MTSET at a concentration of 0.01 mM for Y107C/C109A or 0.002 mM for S404C/C109A at 22 °C for 15 min, respectively. At the end of this incubation, cells were washed free of MTSET and ligands into KRH buffer containing NaCl and APP^+. APP^+ uptake was measured as described under “Materials and Methods”. Error bars represent SEM from three experiments. Asterisks and hashtags indicate statistically significant changes (p < 0.05) in the accumulated APP^+ fluorescence compared with the corresponding control (MTSET alone).
The cells stably expressing Y107C/C109A were treated at 22 °C for 15 min with indicated concentrations of MTSET in the absence or presence of 10 μM vilazodone. After washing to remove excess MTSET and vilazodone, APP^+ uptake was measured as described under “Materials and Methods”. […] The IC50 values of MTSET inhibition were used to calculate rate constants as described under “Materials and Method”. Error bars represent SEM from three experiments. […] After washing to remove excess MTSEA and vilazodone, ASP^+ binding was measured as described under “Materials and Methods”. […] The IC50 values of MTSEA inhibition of ASP^+ binding were converted to rate constants.

Assay [2] concerns the target T2, SERT S404C/C109A (Rattus norvegicus, UniProt P31652, C109A/S404C).
T2 construct: expressed in transfected cells
The description is as above. On the procedure:
as §1, §2
Accessibility of the cysteine residues in the extracellular pathway was measured by reactivity of Y107C/C109A and S404C/C109A mutants with MTSET. The cells stably expressing Y107C/C109A or S404C/C109A were incubated with MTSET over a range of concentrations in HEPES buffer containing indicated ligands or ions at 22 °C for 15 min. After excess MTSET and ligands were removed by rapid 3 × washing with the same buffer, the cells were then incubated with APP^+ at a final concentration of 2 μM in KRH buffer at 22 °C for another 5 min. The extent of APP^+ accumulated in the cells was determined by confocal imaging analysis in the live cells. To measure the effects of antidepressants, substrate 5-HT, or other ligands such as 5-HTP or tryptophan, where added, was present at 10 μM. To measure the effects of ions, 150 mM […] (NMDG) gluconate, and NMDG chloride, sodium isethionate, or NaCl was used as indicated. These measurements of reactivity depend on the ability of MTSET to inactivate APP^+ transport activity by an allosteric mechanism. The MTSET concentration causing half-maximal inactivation was determined and used to calculate the rate constant for cysteine modification, as described previously.

Assay [3] deals with T3, SERT S277C/X5C (Rattus norvegicus, UniProt P31652, C109A/C15A/C21A/C357I/C622A/S277C).
T3 construct: expressed in transfected cells
Nature of the assay: MTS reagent inhibition of ASP+ binding in digitonin-permeabilized cells (cytoplasmic pathway cysteine accessibility). On the procedure:
After 3 × rapid washing with KRH buffer, APP^+ or ASP^+ accumulation was measured as described under “Materials and Methods”. […] These representative images were parallelly acquired from one experiment. […] After 3 × washing, ASP^+ binding to the cell membrane was measured as described under “Materials and Methods”. […] (D) The effects of MTSET on ASP^+ binding of S277C/X5C and X5C. […] After 3 × rapid washing, ASP^+ binding was measured as described under “Materials and Methods”.
After washing to remove excess MTSEA and ligands, ASP^+ binding was measured as described under “Materials and Methods”. […] The IC50 values of MTSEA inhibition of ASP^+ binding were converted to rate constants.
The cells stably expressing Y107C/C109A were treated at 22 °C for 15 min with indicated concentrations of MTSET in the absence or presence of 10 μM vilazodone. After washing to remove excess MTSET and vilazodone, APP^+ uptake was measured as described under “Materials and Methods”. […] The IC50 values of MTSET inhibition were used to calculate rate constants as described under “Materials and Method”. Error bars represent SEM from three experiments. […] After washing to remove excess MTSEA and vilazodone, ASP^+ binding was measured as described under “Materials and Methods”. […] The IC50 values of MTSEA inhibition of ASP^+ binding were converted to rate constants. […]
For cytoplasmic pathway accessibility, measurements were performed with the cells stably expressing S277C/X5C. […] The cells, then, were washed free of unreacted MTSEA and ligands, ASP^+ binding was measured by adding 500 μL KRH buffer containing 10 μM ASP^+ and incubating at 22 °C for 5 min. Excess ASP^+ was removed by 3 × rapid washing with KRH buffer and ASP^+ fluorescence retained in the cell membrane was measured by confocal imaging analysis in the permeabilized cells. […] The MTSEA IC50 value was determined and used to calculate the rate constant for S277C/X5C modification.
(Formazan colour is commonly taken as a measure of viable cells.)

Assay [4] concerns the target T3, SERT S277C/X5C. Nature of the assay: Kinetic analysis of APP+ or ASP+ uptake by fluorescence imaging in stably expressing cells. Conditions: for Km / Vmax: uptake by cells stably expressing S277C/X5C, 22 °C, 5 min.
In assay [5] the target is T2, SERT S404C/C109A. The description is as above. To be noted: for Km / Vmax: uptake by cells stably expressing S404C/C109A, 22 °C, 5 min.
Another assay concerns the target T4, WT-SERT (Rattus norvegicus, UniProt P31652).
T4 construct: expressed in transfected cells
The description is as above. To be noted: 22 °C, 5 min, mean ± SEM of three experiments. As for the experimental part: Figure 1 Kinetic analysis and ion requirements for APP^+ or ASP^+ uptake by SERT. (A) Kinetic analysis for APP^+ or ASP^+ uptake by SERT. […] After washing to remove excess APP^+ or ASP^+, the accumulated fluorescence within the cells (n ≥ 30) were counted and normalized to the cell areas, as described under “Materials and Methods”. […] (B) Ion-dependence of APP^+ or ASP^+ uptake. APP^+ or ASP^+ uptake was measured by incubating the cells stably expressing WT- SERT with APP^+ at 2 μM or ASP^+ at 10 μM in HEPES buffer containing 150 mM NMDGCl, sodium isethionate, or NaCl, respectively. Error bars represent SEM of three experiments.
The cells stably expressing SERT-WT or mutants were wet mounted on polylysine-coated glass slides and applied for indicated treatments. In brief, the cells were washed twice with 500 μL KRH buffer containing 20 mM HEPES, pH 7.4, 120 mM NaCl, 1.3 mM KCl, 2.2 mM CaCl2, 1.2 mM MgSO4, and 0.1% (w/v) glucose. APP^+ or ASP^+ accumulation was measured by adding 500 μL KRH buffer containing 2 μM APP^+ or 10 μM ASP^+ and incubating for 5 min at 22 °C. Excess APP^+ or ASP^+ was then removed by rapid washing three times with 500 μL KRH buffer. The extent of APP^+ or ASP^+ accumulated in the cells was determined with confocal imaging analysis.
Images were acquired at 22 °C using a 20 or 60 × water immersion objective with the Zeiss LSM 900 confocal microscope. APP^+ and ASP^+ were excited by an argon laser with excitation peak at 488 nm. APP^+ fluorescence was captured at 490–565 nm and ASP^+ fluorescence at 600–650 nm. Images were analyzed using National Institutes of Health ImageJ v1.53q. Fluorescence intensity in each cell was counted and normalized to the cell area (mean fluorescence). To obtain ASP^+ binding on the cell surface, intracellular ASP^+ fluorescence intensity was subtracted from total fluorescence in each cell, and the resulting ASP^+ fluorescence on the cell surface was then normalized to the cell membrane area.

Assay [6] has as its target T1, SERT Y107C/C109A. The assay is described as above. Conditions: 22 °C, 5 min.
Setting [7] is: Y107C/C109A, MTSET 0.01 mM, ligand 10 μM, 22 °C, 15 min.
Where [8] appears, read: S404C/C109A, MTSET 0.002 mM, ligand 10 μM, 22 °C, 15 min.

Like-named read-outs stand apart in the source and are kept apart here.

For `CN(C)CCCN1c2ccccc2CCc2ccccc21` [imipramine], the “effect of ligand on reactivity with MTSET” value (from here on “effect of ligand”) on SERT Y107C/C109A [1] (setting [7]) and at SERT S404C/C109A [2] (setting [8]) was “markedly increased the reactivity” in each case.

Regarding `N#Cc1ccc2[nH]cc(CCCCN3CCN(c4ccc5oc(C(N)=O)cc5c4)CC3)c2c1` [vilazodone], the “effect on Cys277 reactivity with MTSEA” value at SERT S277C/X5C [3] (digitonin-permeabilized cells expressing S277C/X5C, 10 μM vilazodone) is listed as “decreased Cys277 reactivity”. On SERT Y107C/C109A [1] (intact cells expressing Y107C/C109A, 10 μM vilazodone), the “effect on Cys107 reactivity with MTSET” value is “increased Cys107 reactivity”.

Consider `N[C@@H](Cc1c[nH]c2ccc(O)cc12)C(=O)O` [5-HTP, 5-hydroxytryptophan], for which the “effect of ligand” value on SERT Y107C/C109A [1] and at SERT S404C/C109A [2] was “little effect on the reactivity” in each case.

By Km is commonly meant the concentration of substrate that gives half-maximal velocity. Consider `CN(C)c1ccc(-c2cc[n+](C)cc2)cc1` [APP^+, 4-[4-(dimethylamino)phenyl]-1-methylpyridinium], for which the Km on SERT S277C/X5C [4] worked out at 1.99 ± 0.05 µM; at SERT S404C/C109A [5] it was 2.07 ± 0.04 µM; at WT-SERT, 2.63 ± 0.06 µM; at SERT Y107C/C109A [6], 2.39 ± 0.04 µM. For the same compound, the Vmax on SERT S277C/X5C [4] worked out at 26.5 ± 1.1 AFU; at SERT S404C/C109A [5] it was 34.9 ± 1.2 AFU; on WT-SERT, 30.5 ± 1.4 AFU; on SERT Y107C/C109A [6] it was 39.4 ± 1.8 AFU.

On to `CN(C)c1ccc(C=Cc2cc[n+](C)cc2)cc1` [ASP^+, 4-(4-(dimethylamino)styryl)-N-methylpyridinium], for which the “Vmax value relative to the WT” value on SERT S277C/X5C [4] (S277C/X5C, ASP+ as substrate) is on record as about 50%; at SERT S404C/C109A [5] (S404C/C109A, ASP+ as substrate), about 70%. In addition, the Km on SERT S277C/X5C [4] worked out at 9.66 ± 0.94 µM; at SERT S404C/C109A [5] it was 8.87 ± 0.59 µM; on WT-SERT it was 8.52 ± 0.15 µM; on SERT Y107C/C109A [6], 9.32 ± 0.48 µM. Also, the Vmax on SERT S277C/X5C [4] was found to be 40.2 ± 3.0 AFU; at SERT S404C/C109A [5], 53.2 ± 3.8 AFU; on WT-SERT it was 75.8 ± 5.3 AFU; at SERT Y107C/C109A [6], 59.9 ± 4.2 AFU.

As to `NCCc1c[nH]c2ccc(O)cc12` [5-HT, 5-hydroxytrypatamine], the “increase of rate constant of MTSEA modification compared with control” value at SERT S277C/X5C [3] (S277C/X5C, 10 μM ligand in the presence of NaCl, 25 μg/mL digitonin) is ~ 2 folds. The “decrease of MTSET rate constant compared with control” value at SERT Y107C/C109A [1] (Y107C/C109A, 10 μM ligand with Na+ and Cl−, control MTSET alone) is about 2 folds. Also, the “effect of ligand” value at SERT Y107C/C109A [1] (setting [7]) and at SERT S404C/C109A [2] (setting [8]) was “significantly decreased the reactivity” each time.

`N[C@@H](Cc1c[nH]c2ccccc12)C(=O)O` [Trp, tryptophan]: the “effect of ligand” value at SERT Y107C/C109A [1] and on SERT S404C/C109A [2] was “little effect on the reactivity” each time.
